Measured values taken from patent publication US10111427B2, “Formulation for improving the yield and quality of fiber in cotton plants” (Council of Scientific & Industrial Research, priority 2015, dated 2018).

Experiments:
cultured cotton ovules [1] = experiment: Ovule culture with different phytohormones with and without Anacardic acid; type: cell-based; details: 12 DPA; for growth in cultures having Anacardic acid with phytohormone: Anacardic acid added at 3 DPA, in comparison to control where only phytohormones were used; for Lignin content of ovules cultured with Anacardic acid and phytohormone: toluidine blue, in comparison to control wherein only phytohormones are used
Experimental: To check the effect of the phytohormones on fiber development for better yield and quality of fibers, different phytohormones and their combinations were tested first tested on cultured ovules. Cotton buds and flowers at 1 DPA stage were plucked from the plants for the ovule culture. Ovaries were surface sterilized using 1% Mercuric chloride solution and washed three times with MQ water. Ovules were excised using sterilized fine forceps and brushes. Isolted ovules (3-5) were transferred to culture media with different 5 μM of 1-Naphthaleneacetic acid (1NAA), Indole-3-acetic acid (IAA), 2,4-Dichlorophenoxyacetic acid (2,4-D), Kinetin, Zeatin and 0.5 μM Gibberellic acid (GA3)along with untreated ovules (having no phytohormones) placed in 35mm tissue culture dishes in two sets. All the dishes were further places in incubators set at 32° C. In one set of dishes, Anacardic acid was added to 3 DPA stage, while the other set was used to control. It has been observed that at 12 DPA stage growth in cultures having Anacardic acid with phytohormones like 1-NAA, IAA, 2,4-D and GA3 at […] was better in comparison to the control conditions, where only phytohormones were used (FIG. 8). […] For the lignin qualification, ovules were boiled in distilled water with a drop of concentrated HCl to dissolve waxes and leave the fibers hydrophilic. After rinsing in distilled water, three ovules per sample were places in a 50 ml falcon tube and stained with 30 ml. of toluidine blue solution (0.018% toluidine blue, 0.016 M Na2HPO4, 0.01 M citric acid, pH 4.5) for 30 s. After staining, the ovules were rinsed thoroughly with distilled water and briefly laid on absorbent paper to remove excess water. Ovules were then returned to 50 ml falcon tubes and 50 ml of destaining solution comprising glacial acetic acid, ethanol and water (10:95:5) added. After vigorous shaking and destaining for at least 1 h, 200μl of the solution was pipetted in triplicate into 96-well flat bottom microtiter plates for measurement of absorbance at 624 nm in a plate reader.

cultured cotton ovules [2] = experiment: In-vitro cotton ovule culture assay, phenotypic observation of fiber growth; type: cell-based; details: tested 1-NAA 1, 5, 10, 20 μM; GA3 0.1, 0.5, 1, 5 μM; Anacardic acid 2, 4, 8, 10 μM; 32° C.
Excerpt: In the present invention, Anacardic acid may be dissolved in solvents selected from Dimethyl Sulfoxide (DMSO), Dimethyl formamide (DMFO), ethanol methanol, dichloromethane, ether, petroleum ether and ethyl acetate in a suitable concentration and mixed with 1Naphthaleneacetic Acid (1-NAA) and Gibberellic acid (GA3). For standardization of appropriate concentrations of phytohormones and Anacardic acid for better yield and quality of fiber, the formulation and its components were first tested on cultured ovules. Different concentrations of 1-NAA (1, 5, 10 and 20 μM) and GA3 (0.1, 0.5, 1 and 5 μM) were tested in ovule culture media and established that fiber growth was better at 5 μM 1-NAA and 0.5 μM GA3. Similarly, different concentrations of Anacardic acid (2, 4, 8 and 10 μM) were also used and established that fiber growth was better at 8 μM Anacardic acid in media in comparison to other concentrations.
Formulation was diluted with modified ½ MSL (Murasighe Skoog Liquid) media having 2% sucrose for a final concentration of Anacardic acid to 8 μM, 1-NAA to 5 μM and GA3 to 0.5 μM. This formulation was then used to culture cotton, ovules excised at −3 DPA (Day Post Anthesis) to study its effect on fiber initiation and at 0 DPA for fiber elongation. Ovules were examined (at 3 DPA for initiation and at 12 DPA for elongation stage) and photographed (Example 1). […] Cotton ovules cultured with the formulation (1-NAA+GA3+ Anacardic acid) in culture media show higher number of initiating fibers and better growth in comparison to control ovules (only phytohormones treated).
For standardization of appropriate concentrations of phytohormones and Anacardic acid for better yield and quality of fiber, the formulation and its components were first tested on cultured ovules. […]
Finally, in-vitro ovule culture experiment was performed with 8 μM Anacardic acid, 5 μM 1-NAA and 0.5 μM GA3 in media along with control sample having only 5 μM 1-NAA and 0.5 μM GA3. The phenotypic observations were recorded at 3 DPA for initiation stage and at 12 DPA for elongation stage (FIG. 1).

O=C(O)Cc1c[nH]c2ccccc12 [IAA, Indole-3-acetic acid]
growth in cultures having Anacardic acid with phytohormone (cultured cotton ovules [1]): better
Lignin content of ovules cultured with Anacardic acid and phytohormone (cultured cotton ovules [1]): higher

C=C1C[C@]23C[C@@]1(O)CC[C@H]2[C@@]12C=C[C@H](O)[C@@](C)(C(=O)O1)[C@H]2[C@@H]3C(=O)O [GA3, Gibberellic acid]
concentration at which fiber growth in ovule culture was better (cultured cotton ovules [2]): 0.5 µM
growth in cultures having Anacardic acid with phytohormone (cultured cotton ovules [1]): better
Lignin content of ovules cultured with Anacardic acid and phytohormone (cultured cotton ovules [1]): higher

CCCCCCCCCCCCCCCc1cccc(O)c1C(=O)O [Anacardic acid]
concentration at which fiber growth in ovule culture was better (cultured cotton ovules [2]): 8 µM

O=C(O)Cc1cccc2ccccc12 [1-NAA, 1-Naphthaleneacetic acid]
concentration at which fiber growth in ovule culture was better (cultured cotton ovules [2]): 5 µM
growth in cultures having Anacardic acid with phytohormone (cultured cotton ovules [1]): better
Lignin content of ovules cultured with Anacardic acid and phytohormone (cultured cotton ovules [1]): higher

O=C(O)COc1ccc(Cl)cc1Cl [2,4-D, 2,4-Dichlorophenoxyacetic acid]
growth in cultures having Anacardic acid with phytohormone (cultured cotton ovules [1]): better
Lignin content of ovules cultured with Anacardic acid and phytohormone (cultured cotton ovules [1]): higher
